Assay results: the NIST ThermoML archive (doi:10.1021/je800548t)
± gives the expanded uncertainty stated by the source.

Conditions: Liquid, Ebulliometric method (Recirculating still)

| Structure (SMILES) | vapor or sublimation pressure (321 K) [kPa] | vapor or sublimation pressure (325 K) [kPa] | vapor or sublimation pressure (330 K) [kPa] | vapor or sublimation pressure (335 K) [kPa] | vapor or sublimation pressure (340 K) [kPa] | vapor or sublimation pressure (345 K) [kPa] | vapor or sublimation pressure (350 K) [kPa] | vapor or sublimation pressure (355 K) [kPa] | vapor or sublimation pressure (359 K) [kPa] | vapor or sublimation pressure (305 K) [kPa] | vapor or sublimation pressure (310 K) [kPa] | vapor or sublimation pressure (315 K) [kPa] | vapor or sublimation pressure (320 K) [kPa] | vapor or sublimation pressure (342 K) [kPa] |
| --- | --- | --- | --- | --- | --- | --- | --- | --- | --- | --- | --- | --- | --- | --- |
| CCO [ethanol] | 26.41 ± 0.21 | 32.02 ± 0.26 | 40.44 ± 0.33 | 50.67 ± 0.41 | 63 ± 0.51 | 77.77 ± 0.63 | 95.35 ± 0.77 | 116.13 ± 0.93 | 135.37 ± 1.1 | – | – | – | – | – |
| ClC(Cl)Cl [trichloromethane] | – | 73.88 ± 0.3 | 87.71 ± 0.36 | 103.5 ± 0.42 | 121.45 ± 0.49 | – | – | – | – | 34.81 ± 0.14 | 42.47 ± 0.17 | 51.43 ± 0.21 | 61.85 ± 0.25 | 129.28 ± 0.52 |
